Ki, melting point and sedative effects data for 13 compounds are collected here from patent US20020132853A1, “Capsaicin receptor ligands” (priority 2000, published 2002).

Where two headings read alike, the source gives them in different places.

Usually melting point stands for the temperature of the solid-liquid transition.

The target of data set [1] is T1, human capsaicin receptor (Homo sapiens, UniProt Q8NER1).
T1 construct: expression consrtuct encoding the full length human capsaicin receptor; expressed in transfected cells
T1 sequence (Q8NER1 whole entry): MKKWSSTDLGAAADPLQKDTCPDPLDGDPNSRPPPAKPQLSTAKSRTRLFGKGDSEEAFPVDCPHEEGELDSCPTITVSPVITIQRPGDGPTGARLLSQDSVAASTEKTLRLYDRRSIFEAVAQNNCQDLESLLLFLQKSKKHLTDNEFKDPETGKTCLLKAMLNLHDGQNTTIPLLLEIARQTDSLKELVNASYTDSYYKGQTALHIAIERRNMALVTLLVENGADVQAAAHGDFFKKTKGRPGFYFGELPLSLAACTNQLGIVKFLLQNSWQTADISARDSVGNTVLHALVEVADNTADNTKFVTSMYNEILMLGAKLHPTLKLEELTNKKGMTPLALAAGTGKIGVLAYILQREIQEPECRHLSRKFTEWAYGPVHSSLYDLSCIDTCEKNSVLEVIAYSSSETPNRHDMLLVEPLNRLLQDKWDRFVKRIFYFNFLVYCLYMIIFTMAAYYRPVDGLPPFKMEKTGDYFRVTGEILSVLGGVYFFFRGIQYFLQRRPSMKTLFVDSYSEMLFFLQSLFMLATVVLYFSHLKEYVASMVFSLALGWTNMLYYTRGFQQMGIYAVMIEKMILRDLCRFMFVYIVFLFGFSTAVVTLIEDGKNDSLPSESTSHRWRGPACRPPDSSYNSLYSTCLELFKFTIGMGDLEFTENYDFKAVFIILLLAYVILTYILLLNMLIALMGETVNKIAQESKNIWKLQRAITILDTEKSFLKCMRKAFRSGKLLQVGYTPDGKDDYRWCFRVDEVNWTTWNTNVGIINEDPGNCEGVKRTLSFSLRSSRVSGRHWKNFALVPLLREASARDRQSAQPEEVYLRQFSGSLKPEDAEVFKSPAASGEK
Kind of data set: Capsaicin receptor binding assay ([3H]RTX competition). The text has this:
Capsaicin Receptor Binding Assay
The following assay is a standard assay of capsaicin receptor binding that may be used to determine the binding affinity of compounds for the capsaicin (VR1) receptor.
Materials. [^3H]Resiniferatoxin (RTX; 37 Ci/mmol) was synthesized by and obtained from the Chemical Synthesis and Analysis Laboratory, National Cancer Institute-Frederick Cancer Research and Development Center, Frederick, MD. [^3H] […] Nonradioactive RTX may be purchased from Alexis Corp. (San Diego, Calif.) and capsazepine from RBI (Natick, Mass).
Cell Culture. […] These transfected cells are selected for two weeks in media containing G418 (400 ug/ml) and then maintained as a pool of stably transfected cells.
pUHG102 VR1 expression plasmids are transfected into Chinese Hamster Ovary (CHO) cells containing the pTet Off Regulator plasmid (Clontech). In these cells, expression of the pUHG plasmid is repressed in the presence of tetracycline but is induced upon removal of the antibiotic. Stable clones are isolated in culture medium containing puromycin (10 ug/ml) and maintained in medium supplemented with tetracycline (1 ug/ml) Cells utilized for assays are grown in culture medium without antibiotic for 48-72 hours prior to use. For radioligand binding experiments, cells are seeded in T175 cell culture flasks in media without antibiotics and grown to approximately 90% confluency. The flasks are then washed with PBS and harvested in PBS containing 5 mM EDTA. The cells are pelleted by gentle centrifugation and stored at −80° C. until assayed.
Previously frozen cells are disrupted with the aid of a tissue homogenizer in ice-cold HEPES homogenization buffer (5mM KCl 5, 5.8mM NaCl, 0.75mM CaCl2, 2mM MgCl2, 320 mM sucrose, and 10 mM HEPES pH 7.4). Tissue homogenates are first centrifuged for 10 min at 1000×g (4° C.) to remove the nuclear fraction and debris and then the supernatant from the first centrifugation is further centrifuged for 30 min at 35,000×g (4° C.) to obtain a partially purified membrane fraction. Membranes are resuspended in the HEPES homogenization buffer prior to being assayed. An aliquot of this membrane homogenate is used to determine protein concentration via the Bradford method (BIO-RAD Protein Assay Ki t, #500-0001, BIO-RAD, Hercules, Calif.).
Binding assay mixtures were set up on ice and contained [^3H]RTX (specific activity 2200 mCi/ml), 2 ul non-radioactive ligands test compound, 0.25 mg/ml bovine serum albumin (Cohn fraction V), and 5×10^4−1×10^5 VR1-transfected cells. The final volume was adjusted to 500 ul (competition binding assays) or 1,000 ul (saturation binding assays) with the ice-cold HEPES homogenization buffer solution (pH 7.4) described above. Non-specific binding was defined as that occurring in the presence of 1 uM non-radioactive RTX. For saturation binding, [^3H]RTX was added in the concentration range of 7 - 1,000 pM, using 1 to 2 dilutions. Typically 11 concentration points are collected per saturation binding curve.
Competition binding assays were performed in the presence of 60 pM [^3H]RTX and various concentrations of competing ligands. The binding reactions are initiated by transferring the assay mixtures into a 37° C. water bath and are terminated following a 60 min incubation period by cooling the tubes on ice. Membrane-bound RTX is separated from free, as well as any alpha1-acid glycoprotein-bound RTX, by filtration onto WALLAC glass fiber filters (PERKIN-ELMER, Gaithersburg, Md.) which are pre-soaked with 1.0% PEI (polyethyleneimine) for 2 hours prior to use.

The nature of data set [2]: Sedative effect noted in CFA arthritis model protocol. Format: in vivo, rats. The settings on record: oral dose of 5mg/kg. The method, then: Male SD rats are injected with […] of CFA (0.1 mg heat killed and dried M. tuberculosis/ml) in the hind paw ([…] on the plantar surface of the paw) essentially as described by Bertorelli R, Corradini L, Rafiq K, Tupper J, Calo G, Ongini E., Br J Pharmacol. 1999 128(6):1252-8 and by Stein C, Millan M J, Herz A. Pharmacol Biochem Behav. 1988 31(2):455-51.
On day 7, animals are treated orally with a compound of the invention, morphine or vehicle (2% vitamin E-TPGS) 1 hour prior to testing.

“4-(3-Chloro-2-pyridinyl)-N-[4-(isopropyl)phenyl]-1-piperazinecarboxamide [Compound 14]”: the Ki in data set [1] (Table II, read-out: Activity) is under 4 µM.
For the compound `CC(C)c1ccc(NC(=S)N2CCN(c3ncccc3Cl)C[C@H]2C)cc1` (stereo in doubt) [Example 7, 4-(3-Chloro-pyridin-2-yl)-2-methyl-piperazine-1-carbothioic acid (4-isopropyl-phenyl)-amide], the melting point fell in the range of 49 to 51 °C.
For the compound `COc1cc(CNC(=O)N2CCN(c3ncccc3C(F)(F)F)CC2)ccc1O` [Compound 1, 4-(3-Trifluoromethyl-2-pyridinyl)-N-(3-methoxy-4-hydroxyphenylmethyl)-1-piperazinecarboxamide], the Ki in data set [1] (read-out: Capsaicin rececptor Ki) turned out to be 0.366 µM.
`CCCCc1ccc(NC(=O)N2CCN(c3ncccc3[N+](=O)[O-])CC2)cc1` [Compound 2, 4-(3-Nitro-2-pyridinyl)-N-[4-(n-butyl)phenyl]-1-piperazinecarboxamide]: in data set [1] (Table II, read-out: Activity), the Ki was under 4 µM.
Turning to `CCCCc1ccc(NC(=O)N2CCN(c3ncccc3C(F)(F)F)CC2)cc1` [Compound 3, 4-(3-Trifluoromethyl-2-pyridinyl)-N-[4-(n-butyl)phenyl]-1-piperazinecarboxamide], the Ki in data set [1] (Table II, read-out: Activity) was under 4 µM.
`Cc1cccnc1N1CCN(C(=O)Nc2ccc(C(C)C)cc2)CC1` [Compound 4, 4-(3-Methyl-2-pyridinyl)-N-[4-(isopropyl)phenyl]-1-Piperazinecarboxamide]: in data set [1] (Table II, read-out: Activity), the Ki was under 4 µM.
Turning to `CC(C)c1ccc(NC(=O)N2CCN(c3ncc(C(F)(F)F)cc3Cl)CC2)cc1` [Compound 7, 4-(3-Chloro-5-trifluoromethyl-2-pyridinyl)-N-[4-(isopropyl)phenyl]-1-piperazinecarboxamide], the Ki in data set [1] (Table II, read-out: Activity) is under 4 µM.
On to `CC(C)c1ccc(NC(=O)N2CCN(c3ncccc3Cl)CC2)cc1` [Compound 8, 4-(3-Chloro-2-pyridinyl)-N-[4-(isopropyl)phenyl]-1-piperazinecarboxamide], for which the Ki in data set [1] (Table II, read-out: Activity) was under 4 µM.
On to `CC(C)c1ccc(NC(=O)N2CCN(c3ncc(Cl)cc3Cl)CC2)cc1` [Compound 9, 4-(3,5-Dichloro-2-pyridinyl)-N-[4-(isopropyl)phenyl]-1-piperazinecarboxamide], for which the Ki in data set [1] (Table II, read-out: Activity) was under 4 µM.
`Cc1cccnc1C(=O)C=Cc1ccc(C(F)(F)F)cc1` [Compound 10, 1-(3-Methyl-2-pyridinyl)-3-(4-trifluoromethylphenyl)-prop-2-en-1-one]: the Ki in data set [1] (Table II, read-out: Activity) was under 4 µM.
Still for that read-out and setting: the same measure for `CC(C)c1ccc(C=CC(=O)c2ncccc2C(F)(F)F)cc1` [Compound 11, 1-(3-Trifluoromethyl-2-pyridinyl)-3-(4-isopropylphenyl)-prop-2-en-1-one]: under 4 µM.
Turning to `CC(C)c1ccc(NC(=O)N2CCN(c3ncccc3C#N)CC2)cc1` [Compound 12, 4-(3-Cyano-2-pyridinyl)-N-[4-(isopropyl)phenyl]-1-piperazinecarboxamide], the Ki in data set [1] was under 4 µM.
For the compound `CN1CC[C@]23c4c5ccc(O)c4O[C@H]2[C@@H](O)C=C[C@H]3[C@H]1C5` [morphine], in data set [2], the sedative effects entry is “has sedative effects”.
